Source: patent US20210401863A1, “TREATMENT AND PREVENTION OF NEISSERIA GONORRHOEAE INFECTION USING CMP-ACTIVATED NONULOSONATE ANALOG COMPOUNDS” (NATIONAL RESEARCH COUNCIL OF CANADA, priority 2015, published 2021)
Where two headings read alike, the source gives them in different places.

Tests used:
N. gonorrhoeae F62 ΔlgtD [1] = assay type: cell-based, Neisseria gonorrhoeae
Method: Generally, bacteria (F62 ΔlgtD) grown overnight on chocolate agar plates were suspended in gonococcal liquid media supplemented with IsoVitaleX [29] that contained specified concentrations of the CMP-nonulosonate. Bacteria were then incubated at 37° C. for the period specified in each experiment.
Serum bactericidal assays were performed as follows, similar to methods outlined in [32,33] and in U.S. Pat. No. 9,765,106. Bacteria were harvested from an overnight culture on chocolate agar plates and ˜10^5 CFU of Ng were grown in liquid media containing the concentrations of CMP-NuIO as specified for each experiment. Bacteria were diluted in Morse A and ˜2000 CFU of Ng F62 ΔlgtD were incubated with NHS (concentration specified for each experiment). The final reaction volumes were maintained at 150 μL. Aliquots of 25 μL of reaction mixtures were plated onto chocolate agar in duplicate at the beginning of the assay (t0) and again after incubation at 37° C. for 30 minutes (t30). Survival was calculated as the number of viable colonies at t30 relative to t0.
Addition of a terminal Neu5Ac residue to the LNnT LOS of N. gonorrhoeae that occurs in vivo or following the addition of CMP-Neu5Ac to growth media results in resistance to complement-dependent killing. We next determined the effects of LNnT incorporation of KDN on the ability of N. gonorrhoeae F62 ΔlgtD to resist complement-dependent killing by normal human sera at concentrations of 3.3% or 10%. Bacteria were grown either in media alone, or media supplemented with 20 μg/mL of CMP-Neu5Ac or CMP-KDN. In addition, CMP-NulO competition experiments were also performed with CMP-Neu5Ac, CMP-Leg5Ac7Ac and CMP-KDN at CMP-NulO concentrations of either 20 μg/mL or 2 μg/mL as indicated, where the second CMP-NulO was added 15 minutes after the first (Table 1 below). To note, these CMP-NulO competition experiments are a method to examine the ability of select CMP-NulOs to counter the enhanced serum resistance due to CMP-Neu5Ac addition, providing information on their therapeutic potential (as any potential therapeutic will be required to compete with CMP-Neu5Ac in vivo).

N. gonorrhoeae H041 = assay: BALB/c mouse vaginal colonization model; assay type: in vivo; settings: 10 μg intravaginally daily; Premarin treated BALB/c mice
Method: FIG. 2: Female BALB/c mice 5-6 weeks of age (Jackson Laboratories) in the diestrus phase of the estrous cycle were started on treatment (that day) with 0.5 mg of Premarin (Pfizer) given subcutaneously on each of three days; −2, 0 and +2 days (before, the day of and after inoculation) to prolong the estrus phase of the cycle and promote susceptibility to N. gonorrhoeae infection. Antibiotics (vancomycin, colistin, neomycin, trimethoprim and streptomycin) that were ineffective against N. gonorrhoeae were also used to reduce competitive microflora. Mice (n=40) were then infected with 10^6 CFU of strain H041. Three groups of mice (n=10/group) were treated with 10 μg intravaginally daily (first dose was administered 30 minutes before the introduction of bacteria) with one of the following CMP-NulOs in normal saline: CMP-Leg5Ac7Ac, CMP-Neu5Ac9Az or CMP-KDN. A fourth group (n=10) was given saline (vehicle control). Vaginal swabs were obtained daily from each animal, serially diluted and plated on chocolate agar containing vancomycin, colistin, neomycin, trimethoprim and streptomycin (VCNTS) to quantify bacterial loads. A. Median time to clearance was estimated using Kaplan-Meier survival curves; the times to clearance were compared between groups using a log-rank test. P<0.0001 for the control versus each of the treatment groups. Time to clearance between each of the treatment groups was similar (P>0.05). B. The mean area under the curve (log10 CFU vs. time) was computed for each mouse to estimate the bacterial burden over time (cumulative infection); the means under the curves were compared between groups using the Kruskal-Wallis nonparametric rank sum test because distributions were skewed or kurtotic. Groups were compared using Dunn's multiple comparison test. ****, P<0.0001; **, P<0.01; *, P<0.05. The differences among the groups that received CMP-NulOs were not significant.
The mouse model experiments and statistical analysis were conducted as described in the art and in U.S. Pat. No. 9,765,106. […]

N. gonorrhoeae F62 ΔlgtD [2] = settings: from U.S. patent application Ser. No. 14/627,396; cited from earlier work
[3] = biological target: T1, gonococcal LOS sialyltransferase (Lst) (Neisseria gonorrhoeae, UniProt P72074); settings: from U.S. patent application Ser. No. 14/627,396; cited from earlier work
T1 construct: CMP-KDN served as a substrate for gonococcal Lst in the context of live bacteria; endogenous in cells; host or cells: N. gonorrhoeae F62 ΔlgtD (live bacteria)

purified human FH [4] = settings: from U.S. Pat. No. 9,765,106 / Ser. No. 14/627,396; cited from earlier work
[5] = biological target: T1, gonococcal LOS sialyltransferase (Lst); assay: mAb 3F11 binding by flow cytometry (incorporation of NulO on LNnT LOS by Lst); assay type: cell-based, N. gonorrhoeae F62 ΔlgtD; settings: F62 ΔlgtD grown in media with 20 μg/mL CMP-NulO
Method: FIG. 1: CMP-KDN serves as a substrate for gonococcal LOS and incorporation of KDN on gonococcal lacto-N-neotetraose LOS enhances factor H (FH) binding. A. Incorporation of KDN by gonococci. Gonococcal strain F62 ΔlgtD (expresses lacto-N-neotetraose (LNnT) from Hepl) was grown in media containing CMP-KDN (20 μg/mL) and binding of mAb 3F11 was measured by flow cytometry. mAb 3F11 binds only to […] LNnT; substitution of the terminal Gal of LNnT, for example with a NulO, will decrease mAb 3F11 binding. Approximately 5×10^7 bacteria were incubated with mAb 3F11 tissue culture supernatants for 15 minutes at 37° C. Binding of mAb 3F11 was disclosed with anti-mouse IgM FITC (Sigma; dilution of 1:100). Bacteria grown in CMP-Neu5Ac or in media alone were used as positive and negative controls for sialylation, respectively. A representative histogram is shown in the upper panel. […] B. Factor H (FH) binding to gonococci grown in CMP-KDN. Approximately 5×10^7 bacteria grown in media alone (no sialic acid), media plus CMP-Neu5Ac (20 μg/mL; positive control for FH binding) or in media containing CMP-KDN (20 μg/mL) were incubated with purified human FH (20 μg/mL) in HBSS** for 15 minutes at 37° C. and bound FH was detected with affinity isolated goat anti-human FH followed by anti-goat IgG FITC (Sigma; 1:100 dilution). A representative histogram is shown in the upper panel.
FIG. 3: CMP-KDN7N3 serves as a substrate for gonococcal Lst resulting in incorporation of KDN7N3 on gonococcal lacto-N-neotetraose (LNnT) LOS—Incorporation of KDN7N3 by gonococci. Gonococcal strain F62ΔlgtD (expresses lacto-N-neotetraose (LNnT) from Hepl) was grown in media containing CMP-KDN7N3 (20 μg/mL) and binding of mAb 3F11 was measured by flow cytometry. mAb 3F11 binds only to […] LNnT; substitution of the terminal Gal of LNnT, for example with a NulO, will decrease mAb 3F11 binding. Approximately 5×10^7 bacteria were incubated with mAb 3F11 tissue culture supernatants for 15 minutes at 37° C. Binding of mAb 3F11 was disclosed with anti-mouse IgM FITC (Sigma; dilution of 1:100). […]

purified human FH [6] = assay: Factor H (FH) binding to gonococci by flow cytometry; assay type: cell-based; settings: F62 ΔlgtD grown with 20 μg/mL CMP-NulO, human FH 20 μg/mL
Method: FIG. 1: CMP-KDN serves as a substrate for gonococcal LOS and incorporation of KDN on gonococcal lacto-N-neotetraose LOS enhances factor H (FH) binding. A. Incorporation of KDN by gonococci. Gonococcal strain F62 ΔlgtD (expresses lacto-N-neotetraose (LNnT) from Hepl) was grown in media containing CMP-KDN (20 μg/mL) and binding of mAb 3F11 was measured by flow cytometry. mAb 3F11 binds only to […] LNnT; substitution of the terminal Gal of LNnT, for example with a NulO, will decrease mAb 3F11 binding. Approximately 5×10^7 bacteria were incubated with mAb 3F11 tissue culture supernatants for 15 minutes at 37° C. Binding of mAb 3F11 was disclosed with anti-mouse IgM FITC (Sigma; dilution of 1:100). Bacteria grown in CMP-Neu5Ac or in media alone were used as positive and negative controls for sialylation, respectively. A representative histogram is shown in the upper panel. […] B. Factor H (FH) binding to gonococci grown in CMP-KDN. Approximately 5×10^7 bacteria grown in media alone (no sialic acid), media plus CMP-Neu5Ac (20 μg/mL; positive control for FH binding) or in media containing CMP-KDN (20 μg/mL) were incubated with purified human FH (20 μg/mL) in HBSS** for 15 minutes at 37° C. and bound FH was detected with affinity isolated goat anti-human FH followed by anti-goat IgG FITC (Sigma; 1:100 dilution). A representative histogram is shown in the upper panel. […]

[7] = CMP-Neu5Ac (20 μg/mL) first, labelled CMP-NulO (20 μg/mL) added 15 minutes later
[8] = labelled CMP-NulO (20 μg/mL) first, CMP-Neu5Ac (2 μg/mL) added 15 minutes later
[9] = labelled CMP-NulO (20 μg/mL) first, CMP-Neu5Ac (20 μg/mL) added 15 minutes later

T1 sequence (P72074 whole entry): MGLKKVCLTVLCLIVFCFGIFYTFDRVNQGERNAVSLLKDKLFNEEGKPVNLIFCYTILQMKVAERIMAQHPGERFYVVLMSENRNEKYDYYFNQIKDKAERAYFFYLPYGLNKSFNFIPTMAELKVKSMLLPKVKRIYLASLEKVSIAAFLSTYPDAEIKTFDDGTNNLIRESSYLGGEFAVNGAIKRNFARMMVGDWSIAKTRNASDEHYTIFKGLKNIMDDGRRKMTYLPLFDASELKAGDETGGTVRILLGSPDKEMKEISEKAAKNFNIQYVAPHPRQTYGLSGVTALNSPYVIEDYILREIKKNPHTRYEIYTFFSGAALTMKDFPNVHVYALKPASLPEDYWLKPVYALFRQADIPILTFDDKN

SMILES | % survival in 3.3% serum (N. gonorrhoeae F62 ΔlgtD [1]; [7]) | % survival in 10% serum (N. gonorrhoeae F62 ΔlgtD [1]; [7]) | countering of serum resistance mediated by CMP-Neu5Ac (competition, in words) (N. gonorrhoeae F62 ΔlgtD [1]; CMP-NulO competition, second CMP-NulO 15 minutes after the first, 3.3% and 10% serum) | % survival in 3.3% serum (N. gonorrhoeae F62 ΔlgtD [1]; [8]) | % survival in 10% serum (N. gonorrhoeae F62 ΔlgtD [1]; [8]) | % survival in 3.3% serum (N. gonorrhoeae F62 ΔlgtD [1]; [9]) | % survival in 10% serum (N. gonorrhoeae F62 ΔlgtD [1]; [9]) | attenuation of N. gonorrhoeae H041 infection (N. gonorrhoeae H041) | serum resistance / serum-mediated killing (earlier results) (N. gonorrhoeae F62 ΔlgtD [2]) | substrate for gonococcal LOS sialyltransferase (Lst) (earlier results) [3] | fH binding to bacteria (earlier results) (purified human FH [4]) | % survival in 10% serum (N. gonorrhoeae F62 ΔlgtD [1]; Table 1, CMP-NulO 20 μg/mL alone) | % survival in 3.3% serum (N. gonorrhoeae F62 ΔlgtD [1]; Table 5, CMP-NulO 20 μg/mL) | % survival in 10% serum (N. gonorrhoeae F62 ΔlgtD [1]; Table 5, CMP-NulO 20 μg/mL) | binding of mAb 3F11 (use as substrate by gonococcal Lst) [5] | fH binding to bacteria (purified human FH [6])
CC(=O)N[C@@H]([C@@H]1O[C@](OP(=O)(O)OC[C@H]2O[C@@H](n3ccc(N)nc3=O)[C@H](O)[C@@H]2O)(C(=O)O)C[C@H](O)[C@H]1NC(C)=O)[C@@H](C)O [CMP-Leg5Ac7Ac] | 9% | 5% | blocked serum resistance mediated by CMP-Neu5Ac at both 3.3% and 10% serum concentrations irrespective of the order of addition | 6% | 6% | 7% | 3% | significantly attenuated | enhanced serum-mediated killing | can serve as substrates for gonococcal LOS sialyltransferase (Lst) | not enhance fH binding above levels seen with an unsialylated F62 ΔlgtD control | – | – | – | – | –
CC(=O)N[C@H]1[C@H]([C@H](O)[C@H](O)CO)O[C@](OP(=O)(O)OC[C@H]2O[C@@H](n3ccc(N)nc3=O)[C@H](O)[C@@H]2O)(C(=O)O)C[C@@H]1O [CMP-Neu5Ac] | – | – | – | – | – | – | – | – | – | – | – | 115% | 133.03% | 129.02% | decreased binding of mAb 3F11 similarly | Maximal fH binding
